# Reference: patent US8877775B2, “Substituted 2-aza-bicyclo[2.2.2]octane-3-carboxylic acid (benzyl-cyano-methyl)-amides inhibitors of cathepsin C” (Boehringer Ingelheim International GmbH, priority 2013, dated 2014)
# System: Neutrophil elastase activity in U937 cells
# Test: Neutrophil elastase activity in U937 cytosolic lysate after incubation with test compound
# Assay type: cell-based
# Conditions: Homo sapiens, U-937; U937 cells incubated 48 hours with compound; NE activity in lysate; read-out: Reduction of NE-activity in U937 cells IC50
# Method: Determination of Neutrophil Elastase Activity in U937 Cytosolic Lysate Preparation after Incubation with Test Compound Materials: Optiplate 384F were purchased from PerkinElmer (Prod. No. #6007270). 24 well Nunclon cell culture plates (No. 142475) and 96 well plates (No. 267245) were from Nunc. Dimethylsulfoxid (DMSO) was from Sigma (Prod. No. D8418). Nonidet-P40 (NP40) was from USBiological (Prod. No. N3500) Substrate, specific for Neutrophil elastase, was from Bachem (MeOSuc-Ala-Ala-Pro-Val-AMC; Prod. No. I-1270). Human neutrophil elastase was from Calbiochem (Prod. No. 324681) Buffers: Tris-buffer (100 mM Tris; 1M NaCL; pH 7.5) Tris-buffer+HSA 0.1%; Human Serum Albumin from Calbiochem (Cat#. 126658) Serine-protease buffer (20 mM Tris; 100 mM NaCL; pH 7.5)+0.1% HSA Serine protease lysis buffer: 20 mM Tris-HCL; 100 mM NaCl pH 7.5; +0.2% Nonidet-P40; PBS: phosphate buffered saline, without Ca and Mg, from Gibco Cell Culture: U937 from ECACC (Cat. No. 85011440) cultured in suspension at 37° C. and 5% CO2. Cell density: 0.2-1 Mio. Cells/ml. Medium: RPMI1640 GlutaMAX (No. 61870) with 10% FCS from Gibco Cell Seeding and Treatment: Compounds in 100% DMSO were diluted in Medium (—FCS) with 10% DMSO and further diluted according to the experiment planned. 20 μl of the compound solution was transferred in the respective wells of the 24 well plate and diluted with 2 ml cell suspension/well containing 1′10^5 cells/ml (final concentration of DMSO=0.1%). Compound dilution factor=100 Compounds (up to 7 concentrations) were tested in triplicates with 3 wells for the DMSO 0.1% control, incubated for 48 hours without medium change at 37° C., 5% CO2 and 95% relative to humidity. Cell Harvesting and Cell Lysate:
# Transfer the cell suspension in 2.2 ml Eppendorf cups. Separate cells from medium by centrifugation (400×g; 5 min; RT); discard the supernatant. Resuspend in 1 ml PBS; centrifugation (400×g; 5 min; RT); wash cells twice with PBS. Add 100 μl Serin lysis buffer (ice cold) to the cell pellet; resuspend the pellet and store on ice for 15 minutes. Remove debris by centrifugation at 15000×g for 10 min at 4° C. Transfer 80-100 μl lysate supernatant in 96 well plate and store immediately at −80° C.
# Neutrophil Elastase Activity Assay:
# Frozen lysates were thawn at 37° C. for 10 minutes and stored on ice. Protein content was determined with Bradford protein assay. Lysates were diluted to 0.2-0.5 mg/ml protein in serine protease buffer+HSA.
# Standard: NE (100 μg/ml stocksolution in Tris-buffer; stored at −80° C.) was diluted in Tris-buffer+HSA to 750 ng/ml, and further serially diluted 1:2 for the standard curve.
# Buffer, blank, standard and lysate samples were transferred into 384 well plate
# The increase in fluorescence (Ex360 nm/Em 460 nm) is determined over 30 minutes with a Molecular Device Spectramax M5 Fluorescence Reader. Kinetic Reduction (Vmax units/sec); 4 vmax points. The amount of neutrophil elastase (ng/ml) is calculated using the standard curve and the Spectramax software. The result is interpolated to ng/mg lysate protein using excel formula functions. […] IC50 is calculated using Graphpad Prism; nonlinear fitting (log(inhibitor) vs. response—Variable slope). The IC50 value is interpolated as the concentration of test compound which leads to a neutrophil elastase activity reduction of 50% (relative to the DMSO-treated control).
row,SMILES,IC50 [nM]
1,"N#C[C@H](Cc1ccc(-c2ccc3c(c2)NC(=O)C3)cc1)NC(=O)[C@H]1NC2CCC1CC2 [Example 2, (2S)—N-[(1S)-cyano-2-[4-(2-oxoindolin-6-yl)phenyl]ethyl]-3-azabicyclo[2.2.2]octane-2-carboxamide]",281
2,CN1C(=O)Cc2ccc(-c3ccc(C[C@@H](C#N)NC(=O)[C@H]4N[C@H]5CC[C@@H]4CC5)cc3)cc21 [Example 4],50
3,"N#Cc1ccc(-c2ccc(C[C@@H](C#N)NC(=O)[C@H]3N[C@H]4CC[C@@H]3CC4)cc2)cc1F [Example 7, (2S)—N-[(1S)-1-cyano-2-[4-(4-cyano-3-fluoro-phenyl)phenyl]ethyl]-3-azabicyclo[2.2.2]octane-2-carboxamide]",561
4,CS(=O)(=O)c1cc(-c2ccc(C[C@@H](C#N)NC(=O)[C@H]3NC4CCC3CC4)cc2)ccc1C#N [Example 8],469
5,CS(=O)(=O)c1cccc(-c2ccc(C[C@@H](C#N)NC(=O)[C@H]3NC4CCC3CC4)cc2)c1 [Example 10],426
6,N#C[C@H](Cc1ccc(-c2ccc3c(c2)CNC3=O)cc1)NC(=O)[C@H]1NC2CCC1CC2 [Example 11],328
7,CS(=O)(=O)Nc1cccc(-c2ccc(C[C@@H](C#N)NC(=O)[C@H]3NC4CCC3CC4)cc2)c1 [Example 12],450
